The values below come from patent EP0382185A2, “Carbostyril derivatives” (OTSUKA PHARMACEUTICAL CO., LTD., priority 1989, dated 1990).

The subject of the experiment is increase of diastolic pressure caused by the intravenous administration of Arg-vasopressin. In words: Anti-vasopressor activity in vivo. Further details: species or system male SD rat. The note with it: 0.05 h; pith rat; test compound intravenous; Arg-vasopressin (30 mU/kg) intravenously 3 minutes after the test compound; dose reducing the increase of diastolic pressure to 50 % of control.

For the molecule `COc1ccc(C(=O)N2CCC(N3C(=O)CCc4ccc(F)cc43)CC2)c(OC)c1` [Example 311, 7-Fluoro-1-[1-(2,4-dimethoxybenzoyl)-4-piperidinyl]-3,4-dihydrocarbostyril], it took a dose of 0.3 mg/kg to reach the 50% effect level (ED50).
